Results taken from patent US10167279B2 (NOVARTIS AG, priority 2014, dated 2019).

Columns and labels:
b-Raf (V600E) = b-Raf (V600E) (Homo sapiens (Human), UniProt P15056, V600E); assay: In vitro Raf activity determination (Alpha Screen, phospho-MEK), b-Raf (V600E); assay type: biochemical; conditions: ATP 10 μM, 60 min pre-incubation, 3 hours reaction
C-Raf FL = C-Raf FL (Homo sapiens (Human), UniProt P04049, Y340E/Y341E); assay: In vitro Raf activity determination (Alpha Screen, phospho-MEK), C-Raf FL (full length, Y340E/Y341E); assay type: biochemical; conditions: ATP 1 μM; 60 min pre-incubation; 1 hour reaction; column head does not say FL or TR
C-Raf FL, sequence (P04049 whole entry Y340E/Y341E): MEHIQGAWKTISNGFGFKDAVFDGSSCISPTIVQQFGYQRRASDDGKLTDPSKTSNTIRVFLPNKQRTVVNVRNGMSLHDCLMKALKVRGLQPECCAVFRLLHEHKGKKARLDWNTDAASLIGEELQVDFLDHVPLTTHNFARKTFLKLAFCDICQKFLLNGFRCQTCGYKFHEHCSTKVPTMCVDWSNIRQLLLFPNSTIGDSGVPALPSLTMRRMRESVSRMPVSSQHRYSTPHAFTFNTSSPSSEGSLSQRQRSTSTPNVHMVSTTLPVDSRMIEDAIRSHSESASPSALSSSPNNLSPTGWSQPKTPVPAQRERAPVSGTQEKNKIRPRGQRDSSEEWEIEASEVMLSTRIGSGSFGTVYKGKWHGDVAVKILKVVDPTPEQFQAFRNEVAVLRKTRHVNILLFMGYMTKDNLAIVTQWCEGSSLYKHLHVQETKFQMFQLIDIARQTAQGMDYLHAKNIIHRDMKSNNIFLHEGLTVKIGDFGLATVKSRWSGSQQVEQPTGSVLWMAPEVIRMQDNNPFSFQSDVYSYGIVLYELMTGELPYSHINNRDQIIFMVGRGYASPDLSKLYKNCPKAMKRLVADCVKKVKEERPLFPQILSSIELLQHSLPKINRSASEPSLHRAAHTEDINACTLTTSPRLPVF
C-Raf FL, sequence (P63104 whole entry partner): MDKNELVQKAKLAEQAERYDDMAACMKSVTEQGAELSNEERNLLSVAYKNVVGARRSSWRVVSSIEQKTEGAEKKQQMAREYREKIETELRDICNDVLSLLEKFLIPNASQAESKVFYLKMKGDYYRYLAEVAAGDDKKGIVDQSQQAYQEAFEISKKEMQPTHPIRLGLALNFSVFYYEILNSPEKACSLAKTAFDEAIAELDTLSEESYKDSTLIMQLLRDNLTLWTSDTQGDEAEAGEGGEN
Outline: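 Read-out is AlphaScreen luminescence using rabbit anti-p-MEK with protein A beads after EDTA stop, with IC50 fitted by non-linear regression. Reaction: Sf9-derived C-Raf plus biotinylated E. coli MEK1 K97R substrate, pH 7.5 Tris/MgCl2/DTT buffer, compound preincubated 60 min at room temperature.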

b-Raf (V600E), sequence (P15056 whole entry V600E): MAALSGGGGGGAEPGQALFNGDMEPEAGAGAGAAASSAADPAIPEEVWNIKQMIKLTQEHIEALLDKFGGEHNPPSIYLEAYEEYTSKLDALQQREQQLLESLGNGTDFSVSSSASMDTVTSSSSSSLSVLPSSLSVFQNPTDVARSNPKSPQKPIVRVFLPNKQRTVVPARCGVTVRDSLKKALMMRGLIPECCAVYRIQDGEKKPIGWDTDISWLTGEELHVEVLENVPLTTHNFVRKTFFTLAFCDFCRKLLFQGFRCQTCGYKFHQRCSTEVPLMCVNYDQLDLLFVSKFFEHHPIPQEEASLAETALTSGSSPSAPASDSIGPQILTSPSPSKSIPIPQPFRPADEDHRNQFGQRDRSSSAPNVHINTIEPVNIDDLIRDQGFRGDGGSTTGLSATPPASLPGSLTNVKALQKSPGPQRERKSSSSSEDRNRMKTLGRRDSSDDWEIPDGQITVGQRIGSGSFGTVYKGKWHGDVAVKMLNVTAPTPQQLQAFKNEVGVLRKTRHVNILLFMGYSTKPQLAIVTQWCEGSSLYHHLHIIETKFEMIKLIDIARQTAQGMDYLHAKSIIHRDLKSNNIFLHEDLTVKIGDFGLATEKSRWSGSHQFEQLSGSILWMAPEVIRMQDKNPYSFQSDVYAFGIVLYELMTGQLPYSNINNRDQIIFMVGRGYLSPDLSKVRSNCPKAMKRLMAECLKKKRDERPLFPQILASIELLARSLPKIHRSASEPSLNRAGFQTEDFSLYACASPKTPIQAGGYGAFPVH

Row | SMILES | IC50 (b-Raf (V600E)) [nM] | IC50 (C-Raf FL) [nM]
1 | COc1ncc(-c2cc(NC(=O)c3cc(C(C)(C)F)ccn3)ccc2C)cc1C1(O)COC1 [Example 95, 4-(2-fluoropropan-2-yl)-N-(3-(5-(3-hydroxyoxetan-3-yl)-6-methoxypyridin-3-yl)-4-methylphenyl)picolinamide] | 3.92 | 0.514
2 | COc1ncc(-c2cc(NC(=O)c3cc(C(C)(C)O)ccn3)ccc2C)cc1C1(F)COC1 [Example 96, N-(3-(5-(3-fluorooxetan-3-yl)-6-methoxypyridin-3-yl)-4-methylphenyl)-4-(2-hydroxypropan-2-yl)picolinamide] | 4.17 | 0.482
3 | COc1ncc(-c2cc(NC(=O)c3ccnc(C(C)(C)F)c3)ccc2C)cc1C1(O)COC1 [Example 99, 2-(2-fluoropropan-2-yl)-N-(3-(5-(3-hydroxyoxetan-3-yl)-6-methoxypyridin-3-yl)-4-methylphenyl)isonicotin-amide] | 2.67 | 0.415
4 | COc1ncc(-c2cc(NC(=O)c3cc(C(C)(C)N)cc(C(F)(F)F)c3)cnc2C)cc1C1(F)COC1 [Example 102, 3-(2-aminopropan-2-yl)-N-(5′-(3-fluorooxetan-3-yl)-6′-methoxy-2-methyl-[3,3′-bipyridin]-5-yl)-5-(trifluoromethyl)benzamide] | 13.2 | 2.68
5 | COc1ncc(-c2cc(NC(=O)c3ccnc(C(C)(F)F)c3)ccc2C)cc1C1(CF)COC1 [Example 103, 2-(1,1-difluoroethyl)-N-(3-(5-(3-(fluoromethyl)oxetan-3-yl)-6-methoxypyridin-3-yl)-4-methylphenyl)isonicotin-amide] | 0.293 | 0.0844
6 | COc1ncc(-c2cc(NC(=O)c3cc(C(C)(C)N)cc(C(F)(F)F)c3)ccc2C)cc1C1(CF)COC1 [Example 108, 3-(2-aminopropan-2-yl)-N-(3-(5-(3-(fluoromethyl)oxetan-3-yl)-6-methoxypyridin-3-yl)-4-methylphenyl)-5-(trifluoromethyl)benzamide] | 1.8 | 0.424
7 | COc1ncc(-c2cc(NC(=O)c3cc(C(C)(C)N)cc(C(F)(F)F)c3)cnc2C)cc1C1(CF)COC1 [Example 109, 3-(2-aminopropan-2-yl)-N-(5′-(3-(fluoromethyl)oxetan-3-yl)-6′-methoxy-2-methyl-[3,3′-bipyridin]-5-yl)-5-(trifluoromethyl)benzamide] | 9.5 | 2.24
8 | Cc1ccc(NC(=O)c2ccnc(C(C)(C)F)c2)cc1-c1cc(C2COC2)c(=O)n(C)c1 [Example 110, 2-(2-fluoropropan-2-yl)-N-(4-methyl-3-(1-methyl-5-(oxetan-3-yl)-6-oxo-1,6-dihydropyridin-3-yl)phenyl)isonicotinamide] | 9.98 | 1.52
9 | COc1ncc(-c2cc(NC(=O)c3cc(C(C)(C)N)cc(C(F)(F)F)c3)ccc2C)cc1C1(C(F)F)COC1 [Example 112, 3-(2-aminopropan-2-yl)-N-(3-(5-(3-(difluoromethyl)oxetan-3-yl)-6-methoxypyridin-3-yl)-4-methylphenyl)-5-(trifluoromethyl)benzamide] | 1.21 | 0.225
10 | COc1ncc(-c2cc(NC(=O)c3cc(C(C)(C)N)cc(C(F)(F)F)c3)cnc2C)cc1C1(C(F)F)COC1 [Example 113, 3-(2-aminopropan-2-yl)-N-(5′-(3-(difluoromethyl)oxetan-3-yl)-6′-methoxy-2-methyl-[3,3′-bipyridin]-5-yl)-5-(trifluoromethyl)benzamide] | 4.75 | 0.9
11 | COc1ncc(-c2cc(NC(=O)c3cc(C(C)(C)N)cc(C(F)(F)F)c3)cnc2C)cc1C1(C#N)COC1 [Example 114, 3-(2-aminopropan-2-yl)-N-(5′-(3-cyanooxetan-3-yl)-6′-methoxy-2-methyl-[3,3′-bipyridin]-5-yl)-5-(trifluoromethyl)benzamide] | 17.5 | 3.26
12 | COc1ncc(-c2cc(NC(=O)c3ccnc(C(F)(F)F)c3)cnc2C)cc1C1(C#N)COC1 [Example 115, N-(5′-(3-cyanooxetan-3-yl)-6′-methoxy-2-methyl-[3,3′-bipyridin]-5-yl)-2-(trifluoromethyl)isonicotin-amide] | 7.01 | 1.06
13 | COc1ncc(-c2cc(NC(=O)c3ccnc(C(C)(F)F)c3)cnc2C)cc1C1(C#N)COC1 [Example 116, N-(5′-(3-cyanooxetan-3-yl)-6′-methoxy-2-methyl-[3,3′-bipyridin]-5-yl)-2-(1,1-difluoroethyl)isonicotin-amide] | 6.22 | 1.25

The remaining compounds from weak to strong by IC50 (b-Raf (V600E)), led by results:

Row | IC50 (b-Raf (V600E)) [nM] | IC50 (C-Raf FL) [nM] | SMILES
14 | 13.1 | 1.11 | COc1ncc(-c2cc(NC(=O)c3ccnc(C(F)F)c3)ccc2C)cc1C1(O)COC1 [Example 98, 2-(difluoromethyl)-N-(3-(5-(3-hydroxyoxetan-3-yl)-6-methoxypyridin-3-yl)-4-methylphenyl)isonicotin-amide]
15 | 10.4 | 1.41 | COc1ncc(-c2cc(NC(=O)c3cccc(C(F)(F)F)c3)cnc2C)cc1C1(O)COC1 [Example 97, N-(5′-(3-hydroxyoxetan-3-yl)-6′-methoxy-2-methyl-[3,3′-bipyridin]-5-yl)-3-(trifluoromethyl)benzamide]
16 | 6.39 | 1.45 | COc1ncc(-c2cc(NC(=O)c3cc(C(C)(C)N)cc(C(F)(F)F)c3)ccc2C)cc1C1(O)COC1 [Example 101, 3-(2-aminopropan-2-yl)-N-(3-(5-(3-hydroxyoxetan-3-yl)-6-methoxypyridin-3-yl)-4-methylphenyl)-5-(trifluoromethyl)benzamide]
17 | 2.96 | 0.725 | COc1ncc(-c2cc(NC(=O)c3cc(C(C)(C)N)cc(C(F)(F)F)c3)ccc2C)cc1C1(F)COC1 [Example 107, 3-(2-aminopropan-2-yl)-N-(3-(5-(3-fluorooxetan-3-yl)-6-methoxypyridin-3-yl)-4-methylphenyl)-5-(trifluoromethyl)benzamide]
18 | 2.75 | 0.716 | COc1ncc(-c2cc(NC(=O)c3ccnc(C(C)(C)F)c3)ccc2C)cc1C1(C#N)COC1 [Example 111, N-(3-(5-(3-cyanooxetan-3-yl)-6-methoxypyridin-3-yl)-4-methylphenyl)-2-(2-fluoropropan-2-yl)isonicotinamide]
19 | 2.2 | 0.3 | COc1ncc(-c2cc(NC(=O)c3ccnc(C4(C#N)CC4)c3)ccc2C)cc1C1(O)COC1 [Example 100]
20 | 0.58 | 0.146 | COc1ncc(-c2cc(NC(=O)c3ccnc(C(C)(C)C#N)c3)ccc2C)cc1C1(CF)COC1 [Example 106, 2-(2-cyanopropan-2-yl)-N-(3-(5-(3-(fluoromethyl)oxetan-3-yl)-6-methoxypyridin-3-yl)-4-methylphenyl)isonicotin-amide]
21 | 0.417 | 0.128 | COc1ncc(-c2cc(NC(=O)c3ccnc(C(C)(C)F)c3)ccc2C)cc1C1(CF)COC1 [Example 104, N-(3-(5-(3-(fluoromethyl)oxetan-3-yl)-6-methoxypyridin-3-yl)-4-methylphenyl)-2-(2-fluoropropan-2-yl)isonicotinamide]
22 | 0.323 | 0.0915 | COc1ncc(-c2cc(NC(=O)c3ccnc(C(F)(F)F)c3)ccc2C)cc1C1(CF)COC1 [Example 105, N-(3-(5-(3-(fluoromethyl)oxetan-3-yl)-6-methoxypyridin-3-yl)-4-methylphenyl)-2-(trifluoromethyl)isonicotin-amide]
